In patent publication US8426408B2, “Pyrimidine inhibitors of kinases” (AbbVie Inc., priority 2009, dated 2013) one finds Ki data, which are given here for 21 molecules.

For one test, the target named is T1, Aurora B (Homo sapiens, UniProt Q96GD4).
T1 construct: Active Aurora B enzyme (recombinant residues 1-344)
The experiment in a line: Aurora B enzyme inhibition (time-resolved fluorescence, histone H3 peptide). Format: biochemical. The following applies: 1 mM ATP. Put shortly: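 Recombinant Aurora B (residues 1-344) with GST-INCENP phosphorylated biotinylated histone H3 (1-21) peptide at 1 mM ATP in HEPES pH 7.4 with MgCl2, orthovanadate and Triton X-100 for 1 h. After EDTA stop, the phosphopeptide was detected by TR-FRET (Eu-cryptate anti-phospho-H3 / SA-APC, 665/615 nm ratio). IC50 from an exponential fit.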

The target of a further test is T2, Aurora A (Homo sapiens, UniProt O14965).
T2 sequence (O14965 1-403): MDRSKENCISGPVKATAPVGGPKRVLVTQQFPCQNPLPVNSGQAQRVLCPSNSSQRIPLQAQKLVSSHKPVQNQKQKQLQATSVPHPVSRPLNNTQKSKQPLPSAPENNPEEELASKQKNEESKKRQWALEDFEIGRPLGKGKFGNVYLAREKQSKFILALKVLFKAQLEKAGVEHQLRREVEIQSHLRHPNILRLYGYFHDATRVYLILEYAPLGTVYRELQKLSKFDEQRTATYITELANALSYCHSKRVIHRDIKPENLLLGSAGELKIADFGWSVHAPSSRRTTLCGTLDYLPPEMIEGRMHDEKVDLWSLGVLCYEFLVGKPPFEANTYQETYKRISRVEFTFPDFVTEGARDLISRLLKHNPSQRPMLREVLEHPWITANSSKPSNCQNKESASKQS
As to the kind of experiment: Aurora A enzyme inhibition (time-resolved fluorescence, STK substrate-2). Format: biochemical. The following applies: 1 mM ATP. Put shortly:
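Active enzyme incubated 1 h with biotinylated STK substrate-2, 1 mM ATP and inhibitor in Hepes pH 7.4 with MgCl2, orthovanadate and Triton X-100. EDTA stop; phosphopeptide detected by Eu-cryptate anti-phospho-STK/SA-XL665 TR-FRET (665/615 nm ratio); IC50 by exponential fit.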

Where only a bound is given, the exact number is not on record here.

T1 sequence (Q96GD4 whole entry, the tested form may be a part): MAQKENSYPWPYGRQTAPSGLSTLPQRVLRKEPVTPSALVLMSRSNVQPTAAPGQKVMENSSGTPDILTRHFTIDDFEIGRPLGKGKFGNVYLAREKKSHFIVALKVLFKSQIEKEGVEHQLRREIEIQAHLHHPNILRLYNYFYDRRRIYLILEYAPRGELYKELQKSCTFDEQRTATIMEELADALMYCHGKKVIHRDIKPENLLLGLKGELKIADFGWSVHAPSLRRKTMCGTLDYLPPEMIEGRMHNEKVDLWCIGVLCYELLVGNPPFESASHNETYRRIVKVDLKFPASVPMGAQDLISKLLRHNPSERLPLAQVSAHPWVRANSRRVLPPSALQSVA
T1 sequence (Q9NQS7 826-918 partner limits assumed): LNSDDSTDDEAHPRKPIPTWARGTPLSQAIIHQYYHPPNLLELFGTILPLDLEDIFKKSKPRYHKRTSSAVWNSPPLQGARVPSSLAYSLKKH

What is called Ki is the equilibrium dissociation constant of an inhibitor or competing ligand from its target. Low values mean tighter binding, high ones weaker binding. Turning to `NC(=O)[C@@H]1[C@H](Nc2nc(Nc3cnn(C4CCC4)c3)ncc2Br)[C@H]2C=C[C@@H]1C2` [Example 123, (1S,2S,3R,4R)-3-({5-bromo-2-[(1-cyclobutyl-1H-pyrazol-4-yl)amino]pyrimidin-4-yl}amino)bicyclo[2.2.1]hept-5-ene-2-carboxamide], the Ki at Aurora B and at Aurora A was less than 100 nM in each case.

On to `COc1cccc(Cn2cc(Nc3ncc(Cl)c(N[C@H]4[C@@H](C(N)=O)[C@@H]5C=C[C@H]4C5)n3)cn2)c1` [Example 155, (1S,2S,3R,4R)-3-[(5-chloro-2-{[1-(3-methoxybenzyl)-1H-pyrazol-4-yl]amino}pyrimidin-4-yl)amino]bicyclo[2.2.1]hept-5-ene-2-carboxamide], for which the inhibition constant (Ki) on Aurora B and at Aurora A was less than 100 nM throughout.

As to `NC(=O)[C@@H]1[C@H](Nc2nc(Nc3cnn(C[C@@H](O)CO)c3)ncc2Cl)[C@H]2C=C[C@@H]1C2` [Example 130, (1S,2S,3R,4R)-3-{[5-chloro-2-({1-[(2R)-2,3-dihydroxypropyl]-1H-pyrazol-4-yl}amino)pyrimidin-4-yl]amino}bicyclo[2.2.1]hept-5-ene-2-carboxamide], the Ki on Aurora B and at Aurora A was less than 100 nM each time.

For the molecule `NC(=O)[C@@H]1[C@H](Nc2nc(Nc3cnn(C[C@H](O)CO)c3)ncc2Br)[C@H]2C=C[C@@H]1C2` [Example 131, (1S,2S,3R,4R)-3-{[5-bromo-2-({1-[(2S)-2,3-dihydroxypropyl]-1H-pyrazol-4-yl}amino)pyrimidin-4-yl]amino}bicyclo[2.2.1]hept-5-ene-2-carboxamide], the Ki on Aurora B and on Aurora A was less than 100 nM throughout.

With `CN1CCN(CCn2cc(Nc3ncc(Cl)c(N[C@@H]4[C@H]5CC[C@H](C5)[C@@H]4C(N)=O)n3)cn2)CC1` [Example 90, (1R,2S,3R,4S)-3-{[5-chloro-2-({1-[2-(4-methylpiperazin-1-yl)ethyl]-1H-pyrazol-4-yl}amino)pyrimidin-4-yl]amino}bicyclo[2.2.1]heptane-2-carboxamide], the Ki on Aurora B and on Aurora A was less than 100 nM throughout.

Turning to `NC(=O)[C@@H]1[C@H](Nc2nc(Nc3cnn(Cc4ccccc4)c3)ncc2Br)[C@H]2C=C[C@@H]1C2` [Example 149, (1S,2S,3R,4R)-3-({2-[(1-benzyl-1H-pyrazol-4-yl)amino]-5-bromopyrimidin-4-yl}amino)bicyclo[2.2.1]hept-5-ene-2-carboxamide], the Ki on Aurora B and on Aurora A was less than 100 nM each time.

With `Cn1cc(Nc2ncc(C(F)(F)F)c(Nc3ccsc3C(N)=O)n2)cn1` [Example 150, 3-({2-[(1-methyl-1H-pyrazol-4-yl)amino]-5-(trifluoromethyl)pyrimidin-4-yl}amino)thiophene-2-carboxamide], the inhibition constant (Ki) at Aurora B and at Aurora A was less than 100 nM in each case.

In the case of `CN1CCC(Cn2cc(Nc3ncc(Cl)c(N[C@H]4[C@@H](C(N)=O)[C@@H]5C=C[C@H]4C5)n3)cn2)CC1` [Example 97, (1S,2S,3R,4R)-3-{[5-chloro-2-({1-[(1-methylpiperidin-4-yl)methyl]-1H-pyrazol-4-yl}amino)pyrimidin-4-yl]amino}bicyclo[2.2.1]hept-5-ene-2-carboxamide], the Ki on Aurora B and at Aurora A was less than 100 nM in each case.

On to `NC(=O)[C@@H]1[C@H](Nc2nc(Nc3cnn([C@H]4CCOC4)c3)ncc2Br)[C@H]2C=C[C@@H]1C2` [Example 117, (1S,2S,3R,4R)-3-{[5-bromo-2-({1-[(3S)-tetrahydrofuran-3-yl]-1H-pyrazol-4-yl}amino)pyrimidin-4-yl]amino}bicyclo[2.2.1]hept-5-ene-2-carboxamide], for which the Ki on Aurora B and at Aurora A was less than 100 nM each time.

For `CNC(=O)Cn1cc(Nc2ncc(Cl)c(N[C@@H]3[C@H]4CC[C@H](C4)[C@@H]3C(N)=O)n2)cn1` [Example 88, (1R,2S,3R,4S)-3-{[5-chloro-2-({1-[2-(methylamino)-2-oxoethyl]-1H-pyrazol-4-yl}amino)pyrimidin-4-yl]amino}bicyclo[2.2.1]heptane-2-carboxamide], the inhibitory constant (Ki) at Aurora B and at Aurora A was less than 100 nM in each case.

In the case of `CCn1cc(Nc2ncc(Br)c(N[C@@H]3[C@H](C(N)=O)[C@H]4C=C[C@@H]3C4)n2)cn1.CCn1cc(Nc2ncc(Br)c(N[C@H]3[C@@H](C(N)=O)[C@@H]4C=C[C@H]3C4)n2)cn1` (mixture of isomers) [Example 31, (1S,2S,3R,4R)-3-({5-bromo-2-[(1-ethyl-1H-pyrazol-4-yl)amino]pyrimidin-4-yl}amino)bicyclo[2.2.1]hept-5-ene-2-carboxamide and (1R,2R,3S,4S)-3-({5-bromo-2-[(1-ethyl-1H-pyrazol-4-yl)amino]pyrimidin-4-yl}amino)bicyclo[2.2.1]hept-5-ene-2-carboxamide], the inhibition constant (Ki) on Aurora B and on Aurora A was less than 100 nM in each case.

For `COc1cccc(CCn2cc(Nc3ncc(Br)c(N[C@H]4[C@@H](C(N)=O)[C@@H]5C=C[C@H]4C5)n3)cn2)c1` [Example 160, (1S,2S,3R,4R)-3-{[5-bromo-2-({1-[2-(3-methoxyphenyl)ethyl]-1H-pyrazol-4-yl}amino)pyrimidin-4-yl]amino}bicyclo[2.2.1]hept-5-ene-2-carboxamide], the Ki at Aurora B and on Aurora A was less than 100 nM throughout.

For `CC(C)CCn1cc(Nc2ncc(Br)c(N[C@H]3[C@@H](C(N)=O)[C@@H]4C=C[C@H]3C4)n2)cn1` [Example 111, (1S,2S,3R,4R)-3-[(5-bromo-2-{[1-(3-methylbutyl)-1H-pyrazol-4-yl]amino}pyrimidin-4-yl)amino]bicyclo[2.2.1]hept-5-ene-2-carboxamide], the Ki on Aurora B and at Aurora A was less than 100 nM each time.

Consider `CC(C)n1cc(Nc2ncc(Cl)c(N[C@H]3[C@@H](C(N)=O)[C@@H]4C=C[C@H]3C4)n2)cn1` [Example 98, (1S,2S,3R,4R)-3-({5-chloro-2-[(1-isopropyl-1H-pyrazol-4-yl)amino]pyrimidin-4-yl}amino)bicyclo[2.2.1]hept-5-ene-2-carboxamide], for which the inhibition constant Ki at Aurora B and at Aurora A was less than 100 nM in each case.

As for `COCCOCCn1cc(Nc2ncc(Cl)c(N[C@H]3[C@@H](C(N)=O)[C@@H]4C=C[C@H]3C4)n2)cn1` [Example 100, (1S,2S,3R,4R)-3-{[5-chloro-2-({1-[2-(2-methoxyethoxy)ethyl]-1H-pyrazol-4-yl}amino)pyrimidin-4-yl]amino}bicyclo[2.2.1]hept-5-ene-2-carboxamide], the Ki at Aurora B and on Aurora A was less than 100 nM throughout.

As for `Cn1cc(Nc2ncc([N+](=O)[O-])c(N[C@H]3[C@@H](C(N)=O)[C@@H]4C=C[C@H]3C4)n2)cn1` [Example 139, (1S,2S,3R,4R)-3-({2-[(1-methyl-1H-pyrazol-4-yl)amino]-5-nitropyrimidin-4-yl}amino)bicyclo[2.2.1]hept-5-ene-2-carboxamide], the Ki at Aurora B and at Aurora A was less than 100 nM throughout.

For the molecule “(1S,2R)-2-{[5-chloro-2-({1-[2-(morpholin-4-yl)ethyl]-1H-pyrazol-4-yl}amino)pyrimidin-4-yl]amino}cyclopentanecarboxamide and (1R,2S)-2-{[5-chloro-2-({1-[2-(morpholin-4-yl)ethyl]-1H-pyrazol-4-yl}amino)pyrimidin-4-yl]amino}cyclopentanecarboxamide [Example 137]”, the inhibition constant (Ki) on Aurora B and at Aurora A was less than 100 nM throughout.

On to `NC(=O)[C@@H]1[C@H](Nc2nc(Nc3cnn([C@H]4CCOC4)c3)ncc2Cl)[C@H]2C=C[C@@H]1C2` [Example 108, (1S,2S,3R,4R)-3-{[5-chloro-2-({1-[(3S)-tetrahydrofuran-3-yl]-1H-pyrazol-4-yl}amino)pyrimidin-4-yl]amino}bicyclo[2.2.1]hept-5-ene-2-carboxamide], for which the Ki at Aurora B and at Aurora A was less than 100 nM each time.

In the case of `CS(=O)(=O)CCn1cc(Nc2ncc(Cl)c(N[C@H]3[C@@H](C(N)=O)[C@@H]4C=C[C@H]3C4)n2)cn1` [Example 119, (1S,2S,3R,4R)-3-{[5-chloro-2-({1-[2-(methylsulfonyl)ethyl]-1H-pyrazol-4-yl}amino)pyrimidin-4-yl]amino}bicyclo[2.2.1]hept-5-ene-2-carboxamide], the inhibition constant Ki at Aurora B and at Aurora A was less than 100 nM each time.

With `NC(=O)[C@@H]1[C@H](Nc2nc(Nc3cnn(Cc4ccc(Cl)cc4)c3)ncc2Cl)[C@H]2C=C[C@@H]1C2` [Example 162, (1S,2S,3R,4R)-3-[(5-chloro-2-{[1-(4-chlorobenzyl)-1H-pyrazol-4-yl]amino}pyrimidin-4-yl)amino]bicyclo[2.2.1]hept-5-ene-2-carboxamide], the Ki on Aurora B and at Aurora A was less than 100 nM throughout.

`Cn1cc(Nc2ncc(Cl)c(N[C@H]3[C@@H](C(N)=O)C[C@H]4C[C@@H]3C4(C)C)n2)cn1` [Example 165, (1R,2R,3S,5R)-2-({5-chloro-2-[(1-methyl-1H-pyrazol-4-yl)amino]pyrimidin-4-yl}amino)-6,6-dimethylbicyclo[3.1.1]heptane-3-carboxamide]: the inhibition constant (Ki) at Aurora B and on Aurora A was less than 100 nM each time.
